The NIST ThermoML archive (doi:10.1021/acs.jced.5b00934)
± gives the expanded uncertainty stated by the source.

Conditions: Liquid, Vibrating tube method

CCC(C)O (configuration not stated) [butan-2-ol]
mass density (283.15 K, 99 kPa): 814.7 ± 0.8 kg/m3 | mass density (283.15 K, 306 kPa): 814.8 ± 0.8 kg/m3 | mass density (283.15 K, 529 kPa): 815 ± 0.8 kg/m3 | mass density (283.15 K, 909 kPa): 815.3 ± 0.8 kg/m3 | mass density (283.15 K, 1030 kPa): 815.4 ± 0.8 kg/m3 | mass density (283.15 K, 2005 kPa): 816.1 ± 0.8 kg/m3 | mass density (283.15 K, 2987 kPa): 816.8 ± 0.8 kg/m3 | mass density (283.15 K, 4975 kPa): 818.2 ± 0.8 kg/m3 | mass density (283.15 K, 6996 kPa): 819.6 ± 0.8 kg/m3 | mass density (283.15 K, 9019 kPa): 821 ± 0.8 kg/m3 | mass density (283.15 K, 10037 kPa): 821.7 ± 0.8 kg/m3 | mass density (283.15 K, 12013 kPa): 823 ± 0.9 kg/m3 | mass density (283.15 K, 14917 kPa): 824.9 ± 0.9 kg/m3 | mass density (283.15 K, 17956 kPa): 826.9 ± 0.9 kg/m3 | mass density (283.15 K, 20028 kPa): 828.2 ± 0.9 kg/m3 | mass density (283.15 K, 21997 kPa): 829.4 ± 0.9 kg/m3 | mass density (283.15 K, 24984 kPa): 831.2 ± 0.9 kg/m3 | mass density (283.15 K, 27996 kPa): 833 ± 0.9 kg/m3 | mass density (283.15 K, 29889 kPa): 834.1 ± 0.9 kg/m3 | mass density (283.15 K, 31914 kPa): 835.3 ± 0.9 kg/m3 | mass density (283.15 K, 33047 kPa): 835.9 ± 0.9 kg/m3 | mass density (283.15 K, 33065 kPa): 835.9 ± 0.9 kg/m3 | mass density (283.15 K, 34001 kPa): 836.4 ± 0.9 kg/m3 | mass density (283.15 K, 34979 kPa): 836.9 ± 0.9 kg/m3 | mass density (283.15 K, 40002 kPa): 839.7 ± 0.9 kg/m3 | mass density (283.15 K, 42074 kPa): 840.9 ± 0.9 kg/m3 | mass density (283.15 K, 44993 kPa): 842.4 ± 0.9 kg/m3 | mass density (283.15 K, 48024 kPa): 844 ± 0.9 kg/m3 | mass density (283.15 K, 50047 kPa): 845.1 ± 0.9 kg/m3 | mass density (283.15 K, 52032 kPa): 846.1 ± 0.9 kg/m3 | mass density (283.15 K, 55041 kPa): 847.6 ± 0.9 kg/m3 | mass density (283.15 K, 57909 kPa): 849.1 ± 1 kg/m3 | mass density (283.15 K, 60034 kPa): 850.1 ± 1 kg/m3 | mass density (283.15 K, 62037 kPa): 851.1 ± 1 kg/m3 | mass density (283.15 K, 65102 kPa): 852.6 ± 1 kg/m3 | mass density (283.15 K, 66079 kPa): 853 ± 1 kg/m3 | mass density (283.16 K, 37912 kPa): 838.6 ± 0.9 kg/m3 | mass density (288.15 K, 99 kPa): 810.8 ± 0.8 kg/m3 | mass density (288.15 K, 298 kPa): 811 ± 0.8 kg/m3 | mass density (288.15 K, 511 kPa): 811.1 ± 0.8 kg/m3 | mass density (288.15 K, 912 kPa): 811.4 ± 0.8 kg/m3 | mass density (288.15 K, 993 kPa): 811.5 ± 0.8 kg/m3 | mass density (288.15 K, 2048 kPa): 812.3 ± 0.8 kg/m3 | mass density (288.15 K, 3020 kPa): 813 ± 0.8 kg/m3 | mass density (288.15 K, 5097 kPa): 814.5 ± 0.8 kg/m3 | mass density (288.15 K, 10002 kPa): 818 ± 0.8 kg/m3 | mass density (288.15 K, 11924 kPa): 819.3 ± 0.9 kg/m3 | mass density (288.15 K, 15086 kPa): 821.4 ± 0.9 kg/m3 | mass density (288.15 K, 17992 kPa): 823.4 ± 0.9 kg/m3 | mass density (288.15 K, 19982 kPa): 824.6 ± 0.9 kg/m3 | mass density (288.15 K, 21991 kPa): 825.9 ± 0.9 kg/m3 | mass density (288.15 K, 25200 kPa): 827.9 ± 0.9 kg/m3 | mass density (288.15 K, 28149 kPa): 829.7 ± 0.9 kg/m3 | mass density (288.15 K, 30056 kPa): 830.8 ± 0.9 kg/m3 | mass density (288.15 K, 32010 kPa): 832 ± 0.9 kg/m3 | mass density (288.15 K, 32915 kPa): 832.4 ± 0.9 kg/m3 | mass density (288.15 K, 32978 kPa): 832.5 ± 0.9 kg/m3 | mass density (288.15 K, 33919 kPa): 833 ± 0.9 kg/m3 | mass density (288.15 K, 37967 kPa): 835.3 ± 0.9 kg/m3 | mass density (288.15 K, 40071 kPa): 836.5 ± 0.9 kg/m3 | mass density (288.15 K, 42013 kPa): 837.6 ± 0.9 kg/m3 | mass density (288.15 K, 45099 kPa): 839.3 ± 0.9 kg/m3 | mass density (288.15 K, 47977 kPa): 840.8 ± 0.9 kg/m3 | mass density (288.15 K, 51983 kPa): 842.9 ± 0.9 kg/m3 | mass density (288.15 K, 57976 kPa): 846 ± 1 kg/m3 | mass density (288.15 K, 62043 kPa): 848 ± 1 kg/m3 | mass density (288.15 K, 64998 kPa): 849.5 ± 1 kg/m3 | mass density (288.15 K, 66143 kPa): 850 ± 1 kg/m3 | mass density (288.16 K, 6990 kPa): 815.8 ± 0.8 kg/m3 | mass density (288.16 K, 9100 kPa): 817.3 ± 0.8 kg/m3 | mass density (288.16 K, 35048 kPa): 833.7 ± 0.9 kg/m3 | mass density (288.16 K, 50052 kPa): 842 ± 0.9 kg/m3 | mass density (288.16 K, 54961 kPa): 844.5 ± 1 kg/m3 | mass density (288.16 K, 59961 kPa): 847 ± 1 kg/m3 | mass density (293.15 K, 99 kPa): 806.7 ± 0.8 kg/m3 | mass density (293.15 K, 891 kPa): 807.3 ± 0.8 kg/m3 | mass density (293.15 K, 10027 kPa): 814.1 ± 0.8 kg/m3 | mass density (293.15 K, 12006 kPa): 815.5 ± 0.9 kg/m3 | mass density (293.15 K, 14925 kPa): 817.5 ± 0.9 kg/m3 | mass density (293.15 K, 22039 kPa): 822.3 ± 0.9 kg/m3 | mass density (293.15 K, 24969 kPa): 824.2 ± 0.9 kg/m3 | mass density (293.15 K, 28001 kPa): 826 ± 0.9 kg/m3 | mass density (293.15 K, 30012 kPa): 827.2 ± 0.9 kg/m3 | mass density (293.15 K, 31992 kPa): 828.4 ± 0.9 kg/m3 | mass density (293.15 K, 33079 kPa): 829.1 ± 0.9 kg/m3 | mass density (293.15 K, 34051 kPa): 829.6 ± 0.9 kg/m3 | mass density (293.15 K, 37933 kPa): 831.9 ± 0.9 kg/m3 | mass density (293.15 K, 40088 kPa): 833.1 ± 0.9 kg/m3 | mass density (293.15 K, 42062 kPa): 834.2 ± 0.9 kg/m3 | mass density (293.15 K, 45052 kPa): 835.9 ± 0.9 kg/m3 | mass density (293.15 K, 48098 kPa): 837.6 ± 0.9 kg/m3 | mass density (293.15 K, 50000 kPa): 838.6 ± 0.9 kg/m3 | mass density (293.15 K, 51999 kPa): 839.7 ± 0.9 kg/m3 | mass density (293.15 K, 55060 kPa): 841.3 ± 1 kg/m3 | mass density (293.15 K, 58191 kPa): 842.9 ± 1 kg/m3 | mass density (293.15 K, 62049 kPa): 844.8 ± 1 kg/m3 | mass density (293.15 K, 64958 kPa): 846.3 ± 1 kg/m3 | mass density (293.15 K, 66185 kPa): 846.9 ± 1 kg/m3 | mass density (293.16 K, 304 kPa): 806.8 ± 0.8 kg/m3 | mass density (293.16 K, 505 kPa): 807 ± 0.8 kg/m3 | mass density (293.16 K, 1026 kPa): 807.4 ± 0.8 kg/m3 | mass density (293.16 K, 1994 kPa): 808.2 ± 0.8 kg/m3 | mass density (293.16 K, 3011 kPa): 808.9 ± 0.8 kg/m3 | mass density (293.16 K, 4984 kPa): 810.4 ± 0.8 kg/m3 | mass density (293.16 K, 7001 kPa): 811.9 ± 0.8 kg/m3 | mass density (293.16 K, 8967 kPa): 813.4 ± 0.8 kg/m3 | mass density (293.16 K, 17912 kPa): 819.5 ± 0.9 kg/m3 | mass density (293.16 K, 20060 kPa): 821 ± 0.9 kg/m3 | mass density (293.16 K, 33109 kPa): 829 ± 0.9 kg/m3 | mass density (293.16 K, 35005 kPa): 830.2 ± 0.9 kg/m3 | mass density (293.16 K, 60071 kPa): 843.8 ± 1 kg/m3 | mass density (298.15 K, 96 kPa): 802.3 ± 0.8 kg/m3 | mass density (298.15 K, 291 kPa): 802.5 ± 0.8 kg/m3 | mass density (298.15 K, 488 kPa): 802.7 ± 0.8 kg/m3 | mass density (298.15 K, 995 kPa): 803.1 ± 0.8 kg/m3 | mass density (298.15 K, 2020 kPa): 803.9 ± 0.8 kg/m3 | mass density (298.15 K, 9025 kPa): 809.3 ± 0.8 kg/m3 | mass density (298.15 K, 10078 kPa): 810 ± 0.9 kg/m3 | mass density (298.15 K, 17949 kPa): 815.6 ± 0.9 kg/m3 | mass density (298.15 K, 19932 kPa): 817 ± 0.9 kg/m3 | mass density (298.15 K, 22061 kPa): 818.4 ± 0.9 kg/m3 | mass density (298.15 K, 24991 kPa): 820.3 ± 0.9 kg/m3 | mass density (298.15 K, 27926 kPa): 822.2 ± 0.9 kg/m3 | mass density (298.15 K, 30121 kPa): 823.6 ± 0.9 kg/m3 | mass density (298.15 K, 32061 kPa): 824.8 ± 0.9 kg/m3 | mass density (298.15 K, 33040 kPa): 825.4 ± 0.9 kg/m3 | mass density (298.15 K, 33088 kPa): 825.4 ± 0.9 kg/m3 | mass density (298.15 K, 35034 kPa): 826.5 ± 0.9 kg/m3 | mass density (298.15 K, 38020 kPa): 828.3 ± 0.9 kg/m3 | mass density (298.15 K, 49981 kPa): 835.1 ± 0.9 kg/m3 | mass density (298.15 K, 57978 kPa): 839.4 ± 1 kg/m3 | mass density (298.15 K, 60039 kPa): 840.5 ± 1 kg/m3 | mass density (298.15 K, 62048 kPa): 841.5 ± 1 kg/m3 | mass density (298.15 K, 66054 kPa): 843.6 ± 1 kg/m3 | mass density (298.16 K, 906 kPa): 803 ± 0.8 kg/m3 | mass density (298.16 K, 3037 kPa): 804.7 ± 0.8 kg/m3 | mass density (298.16 K, 5064 kPa): 806.3 ± 0.8 kg/m3 | mass density (298.16 K, 7065 kPa): 807.8 ± 0.8 kg/m3 | mass density (298.16 K, 12017 kPa): 811.4 ± 0.9 kg/m3 | mass density (298.16 K, 15244 kPa): 813.7 ± 0.9 kg/m3 | mass density (298.16 K, 34019 kPa): 825.9 ± 0.9 kg/m3 | mass density (298.16 K, 40026 kPa): 829.5 ± 0.9 kg/m3 | mass density (298.16 K, 42019 kPa): 830.7 ± 0.9 kg/m3 | mass density (298.16 K, 44993 kPa): 832.3 ± 0.9 kg/m3 | mass density (298.16 K, 47933 kPa): 834 ± 0.9 kg/m3 | mass density (298.16 K, 52047 kPa): 836.3 ± 1 kg/m3 | mass density (298.16 K, 54969 kPa): 837.8 ± 1 kg/m3 | mass density (298.16 K, 65037 kPa): 843.1 ± 1 kg/m3 | mass density (303.15 K, 98 kPa): 798.2 ± 0.8 kg/m3 | mass density (303.15 K, 290 kPa): 798.3 ± 0.8 kg/m3 | mass density (303.15 K, 914 kPa): 798.8 ± 0.8 kg/m3 | mass density (303.15 K, 1019 kPa): 798.9 ± 0.8 kg/m3 | mass density (303.15 K, 2009 kPa): 799.7 ± 0.8 kg/m3 | mass density (303.15 K, 3007 kPa): 800.5 ± 0.8 kg/m3 | mass density (303.15 K, 4968 kPa): 802.1 ± 0.8 kg/m3 | mass density (303.15 K, 8967 kPa): 805.2 ± 0.8 kg/m3 | mass density (303.15 K, 17980 kPa): 811.8 ± 0.9 kg/m3
